Data on 25 compounds can be found in US11857551B1, “Methods for the prevention and treatment of hearing loss” (Ting Therapeutics LLC, priority 2020, dated 2024).

Where a name gives a salt, the structure may show the parent alone.

Data set [1] concerns HEI-OC1 cells. Briefly: Caspase-Glo 3/7 assay in cisplatin-treated HEI-OC1 cells. As to conditions: for activity at 13.3 µM / activity at 0.165 µM / activity at 40 µM: Mus musculus, HEI-OC1, 19 h, read-out: caspase activity reached; for caspase activity reached: normalized to cisplatin-only and media-only controls; for IC50: read-out: calculated IC50 (percent protection dose response, caspase 3/7), HEI-OC1 cells, 1 h pretreatment, 19 h co-incubation.
Description: Cells were seeded at 8,000 cells/well in 96 well plates and left to attach overnight. […] The cells were co-incubated with cisplatin and drug candidates for an additional 19 hours prior to Caspase-Glo 3/7 assay (Promega, Madison, WI) as previously shown. […] The luminescence detection representing caspase activity in each well was obtained using a Cytation Hybrid Multi-Mode Reader (Biotek, Winooski, VT, USA). The percent protection of the cells was calculated using caspase 3/7 readouts and the following formula:
Caspase activity was measured using Caspase-Glo 3/7 assay and then the results were calculated as percentage of protection as an indicator of cell survival/viability. Percent protection for each compound at the tested dosages were then plotted to show dose response curves, and IC50s were calculated.

Data set [2] has as its system zebrafish hair cells. Description: Excitotoxic hair cell damage in zebrafish (FIG. 4C). It counts as in vivo. To be noted: P<0.05, one-way ANOVA. The source says: (*P<0.05, one-way ANOVA.)
Data set [3] has as its system zebrafish HCs (lateral-line neuromasts). Description: Cisplatin ototoxicity in zebrafish, neuromast hair cell count.
Data set [4] has as its system cancer patients. As to conditions: cisplatin chemotherapy; cited from earlier work.
Data set [5] has as its system patients who received cisplatin chemotherapy. To be noted: cited from earlier work.
Setting [6] is: 0.002, 0.018, 0.165, 1.48, 13.3 μM for 1 hour, then co-incubation with 400 μM cisplatin for 4 hours.

As for `O=c1[nH]cc(F)c(=O)[nH]1` [5-fluorouracil], in data set [1], the activity at 13.3 µM is roughly 30%. Also, the “protection of hair cells from excitotoxic damage” value in data set [2] is reported as “protect hair cells from excitotoxic damage”. Moreover, the “protection against cisplatin ototoxicity (CIHL) in zebrafish” value (from here on “protection against cisplatin ototoxicity”) in data set [3] (setting [6]) is recorded as “showed protection against CIHL”.

For the compound `Sc1ncnc2nc[nH]c12` [6 mercaptopurine], the activity at 0.165 µM in data set [1] was roughly 70%. In addition, in data set [3] (setting [6]), the “protection against cisplatin ototoxicity” value is “showed protection against CIHL”.

As for `N.N.[Cl][Pt][Cl]` [Cisplatin], in data set [4], the “permanent hearing loss, share of treated cancer patients” value is listed as 40-60%.

In data set [1] (dosage ~4.4 μM, cisplatin 50 μM), `CCCCC1(C2CCCC2)Cc2cc(OCCCC(=O)O)c(Cl)c(Cl)c2C1=O` (stereo not drawn) [DCPIB] had a caspase activity reached of 0%. For the same compound, the IC50 in data set [1] (cisplatin 50 μM) was 3.1 µM. Further, in data set [3] (setting [6]), the “protection against cisplatin ototoxicity” value is “showed protection against CIHL”.

With `O=C(Nc1ccc([N+](=O)[O-])cc1Cl)c1cc(Cl)ccc1O` [Niclosamide], in data set [1] (dose 4.4 μM, cisplatin 50 μM, n=3 wells), the “caspase-3/7 activity versus control cells (in words)” value is listed as “reduce caspase activity to comparable levels as control cells”. Moreover, the “cisplatin damage in zebrafish HCs at SO3 and O1-2 neuromasts” value in data set [3] (pretreated with 0.002 μM, n=5 to 8 per group) is on record as “significantly reduced Cisplatin damage”.

On to `O=S([O-])([O-])=S.[Na+].[Na+]` [Sodium thiosulfate (STS), Sodium thiosulfate], for which the “protecting cisplatin-induced hearing loss (CIHL)” value in data set [5] (patients with other cancers) was “ineffective”. Further, the protecting hearing result in data set [5] (pediatric patients with localized hepatoblastoma who received cisplatin chemotherapy) is listed as “effective”.

Take `CC[C@@]1(O)C(=O)OCc2c1cc1n(c2=O)Cc2cc3ccccc3nc2-1` [camptothecin]: the activity at 13.3 µM in data set [1] was roughly 80%. In data set [3] (setting [6]), the “protection against cisplatin ototoxicity” value was “showed protection against CIHL”.

For `C[C@H](CS)C(=O)N1CCC[C@H]1C(=O)O` [captopril], in data set [1], the activity at 0.165 µM was roughly 85%. For the same compound, the “protection against cisplatin ototoxicity” value in data set [3] (setting [6]) is recorded as “showed protection against CIHL”.

Regarding `CN1C(=O)[C@@]23C[C@]4([C@]56C[C@@]78SS[C@@](CO)(C(=O)N7[C@H]5Nc5ccccc56)N(C)C8=O)c5ccccc5N[C@@H]4N2C(=O)[C@]1(CO)SS3` [chaetocin], the activity at 13.3 µM in data set [1] is 0%.

Regarding `OCC(S)CS` (stereo not drawn) [dimercaptopropanol], in data set [1] (dosage ~40 μM, cisplatin 50 μM), the caspase activity reached came out at 0%. Moreover, the IC50 in data set [1] (cisplatin 50 μM) is roughly 15 µM. The “protection against cisplatin ototoxicity” value in data set [3] (setting [6]) was “showed protection against CIHL”.

Turning to `CO[C@H]1C[C@@H]2CC[C@@H](C)[C@@](O)(O2)C(=O)C(=O)N2CCCC[C@H]2C(=O)O[C@H]([C@H](C)C[C@@H]2CC[C@@H](OCCO)[C@H](OC)C2)CC(=O)[C@H](C)/C=C(\C)[C@@H](O)[C@@H](OC)C(=O)[C@H](C)C[C@H](C)/C=C/C=C/C=C/1C` [everolimus], the activity at 13.3 µM in data set [1] amounted to 0%. For the same compound, in data set [3] (setting [6]), the “protection against cisplatin ototoxicity” value is on record as “showed protection against CIHL”.

As for `CC(Nc1nc(N2CCCC2)nc2ccccc12)c1ccccc1` (stereo not drawn) [importazole], the caspase activity reached in data set [1] (dosage ~40 μM, cisplatin 50 μM) was 0%. Further, in data set [1] (cisplatin 50 μM), the IC50 was 6.52 µM. In addition, the “protection of hair cells from excitotoxic damage” value in data set [2] was “protect hair cells from excitotoxic damage”. Moreover, in data set [3] (setting [6]), the “protection against cisplatin ototoxicity” value is listed as “showed protection against CIHL”.

`CCc1c2c(nc3ccc(OC(=O)N4CCC(N5CCCCC5)CC4)cc13)-c1cc3c(c(=O)n1C2)COC(=O)[C@]3(O)CC` [irinotecan]: the activity at 13.3 µM in data set [1] was roughly 60%. In data set [3] (setting [6]), the “protection against cisplatin ototoxicity” value was “showed protection against CIHL”.

On to `CCCC[C@@H](C)/C=C(C)/C=C(\C)C(=O)NC1=C[C@@](O)(/C=C/C=C/C=C/C(=O)NC2=C(O)CCC2=O)[C@@H]2O[C@@H]2C1=O` [manumycin A], for which the caspase activity reached in data set [1] (dosage ~1.48 μM, cisplatin 50 μM) was roughly 35%. In addition, in data set [1] (cisplatin 50 μM), the IC50 was 11.7 µM. In addition, the “protection against cisplatin ototoxicity” value in data set [3] (setting [6]) was “showed protection against CIHL”.

Turning to `CC(=O)c1c(C)c2cnc(Nc3ccc(N4CCNCC4)cn3)nc2n(C2CCCC2)c1=O` [palbociclib], the activity at 40 µM in data set [1] was roughly 80%.

As for `C1CCC(C(CC2CCCCN2)C2CCCCC2)CC1` (stereo not drawn) [perhexiline maleate], the activity at 40 µM in data set [1] came out at 0%. Also, the “protection against cisplatin ototoxicity” value in data set [3] (setting [6]) is reported as “showed protection against CIHL”.

In the case of `CCCc1cc(C(N)=S)ccn1` [prothionamide], the activity at 40 µM in data set [1] was roughly 50%. Also, the “protection against cisplatin ototoxicity” value in data set [3] (setting [6]) is given as “showed protection against CIHL”.

In the case of `C[C@@H]1C[C@H]2O[C@@H]2/C=C\C=C\C(=O)Cc2c(Cl)c(O)cc(O)c2C(=O)O1` [radicicol], the activity at 13.3 µM in data set [1] worked out at 0%. Further, the “protection against cisplatin ototoxicity” value in data set [3] (setting [6]) is on record as “showed protection against CIHL”.

`Cc1nc2ccc(CN(C)c3ccc(C(=O)N[C@@H](CCC(=O)O)C(=O)O)s3)cc2c(=O)[nH]1` [raltitrexed]: the activity at 40 µM in data set [1] was roughly 20%. Further, the “protection against cisplatin ototoxicity” value in data set [3] (setting [6]) is listed as “showed protection against CIHL”.

As to `CC(=O)c1c(O)c(C)c(O)c(Cc2c(O)c3c(c(C(=O)/C=C/c4ccccc4)c2O)OC(C)(C)C=C3)c1O` [rottlerin], the activity at 13.3 µM in data set [1] turned out to be 0%. The “protection against cisplatin ototoxicity” value in data set [3] (setting [6]) was “showed protection against CIHL”.

For `CC(C(=O)Nc1cccc(/N=C/c2c(O)ccc3ccccc23)c1)c1ccccc1` (stereo not drawn) [salermide], the activity at 40 µM in data set [1] stood at 0%. The “protection against cisplatin ototoxicity” value in data set [3] (setting [6]) is “showed protection against CIHL”.

For the compound `O=C(O)[C@@H](S)[C@@H](S)C(=O)O` [succimer], in data set [1], the activity at 40 µM is roughly 80%. The “protection against cisplatin ototoxicity” value in data set [3] (setting [6]) is given as “showed protection against CIHL”.

Take `CSc1ccc2c(c1)N(CCC1CCCCN1C)c1ccccc1S2` (stereo not drawn) [thioridazine]: in data set [1], the activity at 40 µM amounted to 0%. In addition, the “protection against cisplatin ototoxicity” value in data set [3] (zebrafish, in vivo) is listed as “showed protection against CIHL”.

As for `CC(S)C(=O)NCC(=O)O` (stereo not drawn) [tiopronin], in data set [3] (setting [6]), the “protection against cisplatin ototoxicity” value is recorded as “showed protection against CIHL”.

`COC[C@H]1OC(=O)c2coc3c2[C@@]1(C)C1=C(C3=O)[C@@H]2CCC(=O)[C@@]2(C)C[C@H]1OC(C)=O` [wortmannin]: the activity at 40 µM in data set [1] is roughly 50%.
